Measured values taken from patent US20230141600A1, “IMIDAZOPYRAZINE DERIVATIVES” (priority 2020, published 2023).
Counter-ions that a name gives are not always drawn.

What follows are compounds tested on Acinetobacter baumannii ATCC17961 (assay: 90% growth inhibitory concentration (IC90) determination, antimicrobial susceptibility testing). Settings: 90% growth inhibition, Iso-Sensitest broth, OD 600 nm over 16 h, 35±2° C.; read-out: ATCC 17961 IC90.
Assay type: cell-based
How it was run: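 Twofold serial dilutions (e.g. 50 to 0.097 μM final) in Iso-Sensitest broth, inoculated at ~5×10^5 CFU/ml and incubated at 35±2 °C for 16 h with OD600 read every minute. IC90 taken from growth inhibition during the logarithmic phase.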

Row | Compound | IC90 [µM]
1 | Methyl 2-[1-[1-(azetidin-3-ylmethyl)-1-methyl-piperidin-1-ium-4-carbonyl]-4-piperidyl]-2-[[4-[[3-(2,3-difluoro-4-methoxy-phenyl)imidazo[1,2-a]pyrazin-8-yl]amino]-2-ethyl-benzoyl]amino]acetate formate 2,2,2-trifluoroacetate (Mixed Salt) [Example 125] | 1.55

Same assay, conditions: Acinetobacter baumannii, ATCC17961, 16 h, 90% growth inhibition, Iso-Sensitest broth, OD 600 nm over 16 h, 35±2° C.; read-out: ATCC 17961 IC90

Row | Compound | IC90 [µM]
2 | CCc1cc(Nc2nccn3c(-c4ccc(OC)c(F)c4F)cnc23)ccc1C(=O)NCCCNC(=O)CC1CC[N+](C)(CC2CNC2)CC1 (centres unmarked) [Example 131, N-[3-[[2-[1-(Azetidin-3-ylmethyl)-1-methyl-piperidin-1-ium-4-yl]acetyl]amino]propyl]-4-[[3-(2,3-difluoro-4-methoxy-phenyl)imidazo[1,2-a]pyrazin-8-yl]amino]-2-ethyl-benzamide bis(2,2,2-trifluoroacetate)] | 0.114
3 | CCc1cc(Nc2nccn3c(-c4ccc(OC)c(F)c4F)cnc23)ccc1C(=O)NCC1CC[N+](C)(CC(=O)NCC2CCNC2)CC1 (centres unmarked) [Example 132, 4-[[3-(2,3-Difluoro-4-methoxy-phenyl)imidazo[1,2-a]pyrazin-8-yl]amino]-2-ethyl-N-[[1-methyl-1-[2-oxo-2-(pyrrolidin-3-ylmethylamino)ethyl]piperidin-1-ium-4-yl]methyl]benzamide bis(2,2,2-trifluoroacetate)] | 0.32
4 | CCc1cc(Nc2nccn3c(-c4ccc(OC)c(F)c4F)cnc23)ccc1C(=O)NCC1CC[N+](C)(CC2CNC2)CC1 (centres unmarked) [Example 134, N-[[1-(Azetidin-3-ylmethyl)-1-methyl-piperidin-1-ium-4-yl]methyl]-4-[[3-(2,3-difluoro-4-methoxy-phenyl)imidazo[1,2-a]pyrazin-8-yl]amino]-2-ethyl-benzamide; 2,2,2-trifluoroacetate bis(2,2,2-trifluoroacetate)] | 0.35
5 | CCc1cc(Nc2nccn3c(-c4ccc(OC)c(F)c4F)cnc23)ccc1C(=O)NCC1CC[N+](C)(CC2CC[N+](C)(C)C2)CC1 (centres unmarked) [Example 135, 4-[[3-(2,3-Difluoro-4-methoxy-phenyl)imidazo[1,2-a]pyrazin-8-yl]amino]-N-[[1-[(1,1-dimethylpyrrolidin-1-ium-3-yl)methyl]-1-methyl-piperidin-1-ium-4-yl]methyl]-2-ethyl-benzamide Diformate] | 0.479
6 | CCc1cc(Nc2nccn3c(-c4ccc(OC)c(F)c4F)cnc23)ccc1C(=O)NC1CC[N+](C)(CC2CNC2)CC1 (centres unmarked) [Example 136, N-[1-(Azetidin-3-ylmethyl)-1-methyl-piperidin-1-ium-4-yl]-4-[[3-(2,3-difluoro-4-methoxy-phenyl)imidazo[1,2-a]pyrazin-8-yl]amino]-2-ethyl-benzamide bis(2,2,2-trifluoroacetate)] | 0.955
7 | CCc1cc(Nc2nccn3c(-c4c[nH]nc4C(F)(F)F)cnc23)ccc1C(=O)NCC1CC[N+](C)(CC2CNC2)C1 (centres unmarked) [Example 138, N-[[1-(Azetidin-3-ylmethyl)-1-methyl-pyrrolidin-1-ium-3-yl]methyl]-2-ethyl-4-[[3-[3-(trifluoromethyl)-1H-pyrazol-4-yl]imidazo[1,2-a]pyrazin-8-yl]amino]benzamide bis(2,2,2-trifluoroacetate)] | 4.14
8 | CCc1cc(Nc2nccn3c(-c4ccc(OC)c(F)c4F)cnc23)ccc1C(=O)NCCC[N+](C)(CC1CNC1)CC1CNC1 [Example 139, Bis(azetidin-3-ylmethyl)-[3-[[4-[[3-(2,3-difluoro-4-methoxy-phenyl)imidazo[1,2-a]pyrazin-8-yl]amino]-2-ethyl-benzoyl]amino]propyl]-methyl-ammonium bis(2,2,2-trifluoroacetate)] | 4.82
9 | CCc1cc(Nc2nccn3c(-c4ccc(OC)c(F)c4F)cnc23)ccc1C(=O)NCC1CC[N+](CCO)(CC2CNC2)CC1 (centres unmarked) [Example 141, N-[[1-(Azetidin-3-ylmethyl)-1-(2-hydroxyethyl)piperidin-1-ium-4-yl]methyl]-4-[[3-(2,3-difluoro-4-methoxy-phenyl)imidazo[1,2-a]pyrazin-8-yl]amino]-2-ethyl-benzamide 2,2,2-trifluoroacetate] | 0.169
10 | CCc1cc(Nc2nccn3c(-c4ccc(OC)c(F)c4F)cnc23)ccc1C(=O)NCC1CC[N+](C)(CC2CCCN2)CC1 (centres unmarked) [Example 142, 4-[[3-(2,3-Difluoro-4-methoxy-phenyl)imidazo[1,2-a]pyrazin-8-yl]amino]-2-ethyl-N-[[1-methyl-1-(pyrrolidin-2-ylmethyl)piperidin-1-ium-4-yl]methyl]benzamide 2,2,2-trifluoroacetate] | 0.336
11 | CCc1cc(Nc2nccn3c(-c4ccc(OC)c(F)c4F)cnc23)ccc1C(=O)NCC1CC[N+](CC)(CC2CNC2)CC1 (centres unmarked) [Example 143, N-[[1-(Azetidin-3-ylmethyl)-1-ethyl-piperidin-1-ium-4-yl]methyl]-4-[[3-(2,3-difluoro-4-methoxy-phenyl)imidazo[1,2-a]pyrazin-8-yl]amino]-2-ethyl-benzamide Formate] | 0.609
12 | CCc1cc(Nc2nccn3c(-c4ccc(Oc5ccccc5)c(F)c4F)cnc23)ccc1C(=O)NCC1CC[N+](C)(CC2CCNC2)CC1 (centres unmarked) [Example 145, 4-[[3-(2,3-Difluoro-4-phenoxy-phenyl)imidazo[1,2-a]pyrazin-8-yl]amino]-2-ethyl-N-[[1-methyl-1-(pyrrolidin-3-ylmethyl)piperidin-1-ium-4-yl]methyl]benzamide Formate] | 1.78

Same assay, conditions: Acinetobacter baumannii, ATCC17961, 16 h, read-out: ATCC 17961 IC90

Row | Compound | IC90 [µM]
13 | CCc1cc(Nc2nccn3c(-c4ccc(OC)c(F)c4F)cnc23)ccc1C(=O)NCC1CCN(C(=O)C2CC[N+](C)(CC3CNC3)CC2)CC1 (centres unmarked) [Example 133, N-[[1-[1-(Azetidin-3-ylmethyl)-1-methyl-piperidin-1-ium-4-carbonyl]-4-piperidyl]methyl]-4-[[3-(2,3-difluoro-4-methoxy-phenyl)imidazo[1,2-a]pyrazin-8-yl]amino]-2-ethyl-benzamide bis(2,2,2-trifluoroacetate)] | 0.334
14 | CCc1cc(Nc2nccn3c(-c4ccc(OC)c(F)c4F)cnc23)ccc1C(=O)NCC1CC[N+](C)(Cc2cccnc2)CC1 (centres unmarked) [Example 140, 4-[[3-(2,3-difluoro-4-methoxy-phenyl)imidazo[1,2-a]pyrazin-8-yl]amino]-2-ethyl-N-[[1-methyl-1-(3-pyridylmethyl)piperidin-1-ium-4-yl]methyl]benzamide; 2,2,2-trifluoroacetate] | 0.115
